# Results taken from US12152264B2, “Phosphinothricin dehydrogenase mutant, genetically engineered bacterium and one-pot multi-enzyme synchronous directed evolution method” (ZHEJIANG UNIVERSITY OF TECHNOLOGY, priority 2020, dated 2024).
# How the values were obtained:
# [1] = biological target: Pseudomonas fluorescens phosphinothricin dehydrogenase (PPTDH, PfGluDH; WP_150701510.1) mutant A164G_R205K_T332A, SEQ ID No.1 (Pseudomonas azerbaijanoccidentalis, UniProt A0ABS6QXK2, A164G/R205K/T332A); format: biochemical; conditions: A164G_R205K_T332A; pH 7.0, 40° C.
# [2] = biological target: Pseudomonas fluorescens phosphinothricin dehydrogenase (PPTDH, PfGluDH; NCBI accession number WP_150701510.1), wild type (Pseudomonas azerbaijanoccidentalis, UniProt A0ABS6QXK2); assay: Determination of kinetic parameters of wild-type phosphinothricin dehydrogenase (PPO reductive amination with NADPH); conditions: pH 7.0, 40° C.
smiles,measurement,setting,value
NC(=O)C1=CN([C@@H]2O[C@H](COP(=O)(O)OP(=O)(O)OC[C@H]3O[C@@H](n4cnc5c(N)ncnc54)[C@H](OP(=O)(O)O)[C@@H]3O)[C@@H](O)[C@H]2O)C=CC1 [NADPH],kcat/Km^A (NADPH),[1],1.05761e+07 M⁻¹ s⁻¹
same,kcat/Km^A (NADPH),[2],53360 M⁻¹ s⁻¹
